In data set [1] the test system is Pseudomonas fluorescens NRRL-B-18296. Description: Degradation of various chloroaliphatic carbon sources in minimal medium broth (Example 3). In kind it is cell-based. The note with it: 100 ppm; mmo with 0.5% glucose, 0.005% yeast extract, 0.4% potassium nitrate; 10^6 bacteria/ml; 25° C., 24 hours. Here is the method: (§1) In Examples 3 to 6, compounds of interest were quantitated using a Perkin-Elmer (model 8500) gas chromatograph equipped with an HS-6 headspace analyzer (Perkin-Elmer, Norwalk, CT). The instrument was fitted with a 6 foot stainless steel Sp2100 column (Supelco, Bellefonte, PA). Carrier gas flow rate (helium) was 20 ml/min. with an isothermal column temperature of 60° C. Injector and detector temperatures were 150° C. and 200° C. respectively.
(§2) All sample vials were equilibrated at 80° C. in the headspace analyzer for 10 minutes. Vial pressurization times of 30 seconds and injection times of 6 seconds were both controlled by programmed instrument time functions.
(§3) Calibrations were made by the external standard method using the internal data handling capabilities of the instrument. 100 ppm standards were prepared by dispensing 10 ul of the compounds into a serum bottle containing 100.0 g of chilled media analogous to experimental vials. Once the compound was completely dissolved, 2.00 g of the mixture was delivered by syringe to a headspace vial and sealed for subsequent headspace GC analysis.
(§4) Analysis of experimental vials was conducted by removing an aliquot by syringe and delivering 2.00 g to a headspace vial. Vials (6 ml) specified for use with the headspace analyzer were sealed using 19 mm TFE/silicone rubber septa and 20 mm crimp top seals (Alltech Associates, Deerfield, IL). A hand operated crimper was utilized.
The experiments were accomplished in 50 ml of minimal medium (mmo) that was modified. The modified minimal media (mmo) contained the sodium-potassium phosphate buffer at 0.06 M final concentration. The modified (mmo) was supplemented to a final concentration with 0.5% glucose, 0.005% yeast extract, 0.4% potassium nitrate and the volatile chloroaliphatic compound at 100 ppm. The flasks were inoculated with Pseudomonas fluorescens NRRL-B-18296 at 10^6 bacteria/ml. The remaining headspace in the vials was then filled with pure oxygen (approximately 60 ml) and sealed using 19 mm TFE/silicone rubber septa with 20mm crimp top seals. A hand operated crimper was utilized. The sealed vials were then shaken at 350 rpm on a New Brunswick gyrotary shaker (New Brunswick Scientific, Edison, NJ) at 25° C. for 24 hours.
Samples in triplicate (2.00 g) were removed after the 24 hour incubation. The samples were sealed in 6 ml vials and subjected to headspace analysis.
^1 values reported as percentage amounts of 100 ppm carbon source

The test system is the same in data set [2]. Put plainly: Degradation of halogenated hydrocarbons by the strain (general statements). The format is cell-based.
Data set [3] has the same test system. Put plainly: Growth on volatile chlorinated carbon sources (minimal media, vapor phase). The note with it: 72 hours at 25° C., minimal media (mmo), carbon source in vapor phase of sealed container. The format is cell-based. More on the design: key: +: Growth; -: no growth. Here is the method:
^1 Incubation was for 72 hours at 25° C. on minimal media
(mmo). Volatile carbon sources were supplied in the vapor phase of a
sealed container. +, Growth; -, no growth.

For data set [4] the test system is unchanged. Put plainly: Degradation of a mixture of 1,2-dichloroethane and 1,2-dichloropropane, 0.1% glucose (Example 4). The format is cell-based. The note with it: for % degradation: mixture, 100 ppm each, 0.1% glucose, 0.4% potassium nitrate, 10^6 bacteria/ml, 25° C., 168 hours. Here is the method:
as §1, §2, §3, §4
The potassium nitrate provides an assured oxygen source for this strain, since the degradations must be conducted under aerobic conditions.
^1 Experiments were accomplished in 100 ml minimal medium (mmo) supplemented with 0.1% glucose, 100 ppm of 1,2-dichloroethane, 100 ppm of 1,2-dichloropropane, and 0.4% potassium nitrate. The flasks were inoculated with Pseudomonas fluorescens NRRL-B-18296 at 10^6 bacteria/ml, sealed and shaken at 350 rpm on a New Brunswick gyrotary shaker (New Brunswick Scientific, Edison, NJ) at 25° C. for 168 hours. The shaking provides further oxygen to the medium.

Data set [5] has the same test system. Put plainly: Degradation of a mixture of 1,2-dichloroethane and 1,2-dichloropropane, 1.0% glucose (Example 5). The note with it: glucose concentration increased to 1.0%. In kind it is cell-based. Here is the method:
as §1, §2, §3
Analysis of experimental vials was conducted by removing an aliquot by syringe and delivering 2.00 g to a headspace vial. Vials (6 ml) specified for use with the headspace analyzer were sealed using 19 mm TFE/silicone rubber septa and 20 mm crimp top seals (Alltech Associates, Deerfield, IL). […]

Data set [6] has the same test system. Put plainly: Induction of degradation of 1,2-dichloroethane using various carbon sources (Example 6). In kind it is cell-based. Here is the method:
as §1, §2
Calibrations were made by the external standard method using the internal data handling capabilities of the instrument. 100 ppm standards were prepared by dispensing 10 ul of the compounds into a serum bottle containing 100.0 g of chilled media analogous to experimental vials. Once the compound was completely dissolved, 2.00 g of the mixture was delivered by syringe to a headspace vial and sealed for subsequent headspace GC analysis. […]
Individual flasks were supplemented with the following carbon sources at 2mM: ethanol, sodium acetate, glucose, sodium succinate, sodium benzoate, ortho cresol or meta cresol. […] After incubation for 24 hours, the vials were analyzed directly on the headspace gas chromatograph.

For a further data set, the system named is Acinetobacter sp. The settings on record: induced by prior growth on phenol; Nelson et al.; cited from earlier work.
The conditions of data set [7]: formed by anaerobic methanogens; Bouwer 1983; cited from earlier work.

Structures are written as SMILES. Values joined by “and” are separate entries in the source; they are usually repeats but may differ in a detail not shown here. Equal entries are not always repeated.

In the case of `CC(Cl)(Cl)Cl` [1,1,1-trichloroethane], in data set [1], the “% degradation” value came out at 0%. Also, in data set [2], the “Degradation by the strain (in words)” value is reported as “not degraded”.
Take `ClCC(Cl)Cl` [1,1,2-trichloroethane]: in data set [3], the “Growth on carbon source” value was “+”. For the same compound, in data set [1], the “% degradation” value is 23%. Also, the “Degradation by the strain (in words)” value in data set [2] is “can be degraded”.
Consider `ClCCCl` [1,2-dichloroethane], for which the “Growth on carbon source” value in data set [3] was “+”. The “% degradation” value in data set [1] was 10%; in data set [4], 23.3% and 23%. In data set [4], the “Degradation upon extended degradation and supplementing with more glucose” value is “substantially completely degraded”. In data set [5], the “degradative rate, with respect to time” value is given as “increased”. The “Degradation by the strain (in words)” value in data set [2] is given as “can be degraded”.
For `CC(Cl)CCl` (stereo not drawn) [1,2-dichloropropane], the “Growth on carbon source” value in data set [3] is “+”. Moreover, in data set [1], the “% degradation” value was found to be 3%. In data set [4], the “Degradation upon extended degradation and supplementing with more glucose” value is “substantially completely degraded”; the “% degradation” value was 32.1% and 32%. For the same compound, the “degradative rate, with respect to time” value in data set [5] is on record as “increased”. In addition, the “Degradation by the strain (in words)” value in data set [2] is “can be degraded”.
Take `ClCCCCl` [1,3-dichloropropane]: the “Growth on carbon source” value in data set [3] is on record as “-”. Moreover, in data set [1], the “% degradation” value was 0%.
Regarding `CC(C)(Cl)Cl` [2,2-dichloropropane], the “Growth on carbon source” value in data set [3] is listed as “+”. Besides, the “% degradation” value in data set [1] is on record as 7%. Also, the “Degradation by the strain (in words)” value in data set [2] is “can be degraded”.
For the compound `ClC(Cl)(Cl)Cl` [Carbon tetrachloride], the “Degradation by the strain (in words)” value in data set [2] was “not degraded”.
As to `CC(O)C(=O)O` (stereo not drawn) [Sodium lactate], the “Suitability as carbon source for the strain” value in data set [6] (20 mM sodium lactate pre-culture, 25° C., 24 hours) is reported as “effective carbon source”.
Consider `ClCCl` [dichloromethane], for which the “Degradation by the strain (in words)” value in data set [2] was “not degraded”.
In the case of `O=C[C@H](O)[C@@H](O)[C@H](O)[C@H](O)CO` [glucose], the “Induction of degradation of 1,2-dichloroethane” value in data set [6] (short time period of degradation) is “best carbon source to induce the degradation of 1,2-dichloroethane”.
For the compound `ClC(Cl)=C(Cl)Cl` [tetrachloroethylene], the “Growth on carbon source” value in data set [3] was “-”. For the same compound, the “% degradation” value in data set [1] was found to be 0%.
With `ClC=C(Cl)Cl` [trichloroethylene], the “Growth on carbon source” value in data set [3] is reported as “+”. Moreover, the “% degradation” value in data set [1] stood at 2%. For the same compound, the “Degradation by the strain (in words)” value in data set [2] is “can be degraded”. Besides, the “aerobic metabolism (in words)” value with Acinetobacter sp. is “aerobic metabolism”.
Take `C=CCl` [vinyl chloride]: in data set [7], the “toxicity relative to haloaliphatic hydrocarbons” value is listed as “more toxic than the haloaliphatic hydrocarbons”.

These data come from patent US4853334A, “Method for the degradation of volatile chlorinated aliphatic hydrocarbons using pseudomonas fluorescens” (Microlife Technics, Inc., priority 1988, dated 1989).
